Experimental findings from article PMC4109680, “Identification and Preclinical Pharmacology of the γ-Secretase Modulator BMS-869780” (International Journal of Alzheimer's Disease, 2014) are described below.

In this experiment the test system is rat brain Aβ. Description: Rat brain Aβ peptides after oral dose (4-plex immunoassay and Aβ1-x). In kind it is in vivo. The conditions noted are these: 24 hours. Here is the method: IC50 determinations for Aβ1-42 and Aβ1-40 in H4-APPsw cultures in 384-well format were determined using homogeneous time-resolved fluorescence immunoassays as previously described. The principle of these assays is illustrated in Figures 1(c) and 1(d). In other experiments using H4-APPsw cultures, Aβ was quantified by ELISA; for Aβ1-42 the combination of monoclonal antibodies was 26D6 and 565-HRP; for Aβ1-40 it was TSD and 26D6-HRP, and for Aβ1-x it was 4G8 and 26D6-HRP. In some experiments a novel 4-plex Aβ electrochemiluminescence immunoassay was used (Mesoscale Discovery catalog number N45ZA-1). Briefly, the 4-plex was carried out in 96-well format, with 4 separate spots of capture antibodies in each well. The 96-well plates were prepared by the manufacturer, with spots of monoclonal antibodies for Aβ1-42, Aβ1-40, and Aβ1-38, and an additional fourth spot of streptavidin in each well. Plates were initially incubated with blocking buffer (5% BSA in phosphate buffered saline, 200 μL per well) for 2 hours at ambient temperature and then with D2A6H-biotin conjugate (50 ng/mL in 1% BSA, phosphate buffered saline, 25 μL per well) for 1 hour. Plates were then rinsed with phosphate buffered saline before addition of experimental samples for determination of Aβ1-42, Aβ1-40, Aβ1-38, and Aβ1-37 levels, following the manufacturer's instructions as for the Aβ 3-plex kit (catalog number K15148E-1). Rat brain extracts for use in the 4-plex assay were made in 0.2% diethylamine, as previously described. For detection of rat Aβ peptides in the 4-plex (Figure 5), 252Q6-sulfo-tag conjugate was used, and for detection of human Aβ peptides from cell cultures 6E10-sulfo-tag conjugate was used. For Aβ in transiently transfected PS1/PS2 dKO fibroblasts, Aβ1-42 was quantified using an ELISA kit (WACO), and Aβ1-40 was quantified by ELISA as described above for H4-APPsw cultures. For triple transgenic mice (3xTg; [63]), human transgenic Aβ1-42 was assayed in brain homogenates using an ELISA kit (WACO). For the rat and mouse experiments illustrated in Figures 7 and 8, brain samples were prepared by solid phase extraction, and endogenous rat brain Aβ1-42 and Aβ1-40 were quantified by ELISA as previously described for wild type mice. For brain extracts made using solid phase extraction, calibration of Aβ was relative, based on the approximately linear response of the assay in the range tested. For brain extracts made in 0.2% diethylamine, Aβ1-42, Aβ1-40, Aβ1-38, and Aβ1-37 concentrations in brain and cell culture samples were determined by fitting the results of immunoassays against calibration curves derived from a range of dilutions of the corresponding synthetic peptides on each assay plate using a quadratic curve fit (Graphpad Prizm 5.0). Aβ1-x was calibrated in the same way against synthetic Aβ1-40 peptide. Results were expressed in units of pM, corrected for sample dilution.
Rats were given oral doses of BMS-869780, and levels of brain Aβ, βCTF, and αCTF were determined 24 hours later. For comparison, BMS-698861 was dosed in a separate experiment and samples were taken 5 hours later. […] (c) Rat brain βCTF was detected by western blotting of immunoprecipitates from samples of the same rat brains used for Aβ determinations. […] (e) and (f) quantification of western blots shown in (c) and (d), respectively, expressed relative to percent of average level of CTF in vehicle-treated rats. […]

As to `COc1cc(Nc2nc3n(n2)CCCC[C@H]3c2ccc(F)cc2)ccc1-n1cnc(Cl)c1` [BMS-869780], under “oral doses 1.9-235 mg/kg”, the “rat brain Aβ1-37 and Aβ1-38” value is given as “increased”; the “rat brain Aβ1-40 and Aβ1-42” value is given as “decreased”. For the setting “oral doses”, the “rat brain Aβ1-x” value is listed as “no significant decrease”; the “sum total of brain Aβ1-40, Aβ1-42, Aβ1-38 and Aβ1-37” value was “no significant change in overall Aβ levels”.
